The values below come from US8912139B2, “Peptide compositions and methods for treating lung injury, asthma, anaphylaxis, angioedema, systemic vascular permeability syndromes, and nasal congestion” (The Board of Trustees of the University of Illinois, priority 2011, dated 2014).

“Also recorded” adds a separate entry of the source. Ends that are not written are not given here. Peptide text beside a SMILES is read from it. * marks the point of attachment. Myristoyl = CCCCCCCCCCCCCC(=O)*

In one data set the test system is lung injury. Particulars: background statement; cited from earlier work.
In another data set the test system is HMVECs. Briefly: Thrombin-induced Ca2+ release from stores in HMVECs (Fura 2-AM 340/380 ratio). It is filed as cell-based. As to conditions: 5 μg/ml taxol for 20 min prior to thrombin stimulation. As for the experimental part: A. HMVECs pre-treated with AP-attached IP3R3 peptide or control (AP) peptide were loaded with Fura 2-AM and 340/380 ratio was calculated after stimulation of cells with thrombin (50 nM) in the absence and in the presence of extracellular Ca^2+. Arrow, time of thrombin addition. […] The increase is normalized to control non-treated cells from the same experiment (n=4).
The effects of IP3R peptide and taxol were compared in regulating Ca^2+ release.

The next data set concerns IP3R. As to conditions: background statement, MT destabilizing or stabilizing agents; cited from earlier work.
The subject of a further data set is LPS-induced sepsis. Briefly: Survival in LPS-induced murine model of sepsis. It is filed as in vivo, mice. As to conditions: for survival rate, LPS LD90, pre-treatment with Myr-EBIN: Myr-EBIN 1 microM/kg i.v. 30 min prior, 1 hr and 24 hrs after LPS. As to the method:
(n=11-15 mice/group, p<0.001 AP-IP3R3 vs control treatment (AP control) by ANOVA. Mice were anesthetized prior to retro-orbital i.v. injection of IP3R3 with a mixture of ketamine, 10 mg/ml; xylazine, 0.25 mg/ml and acepromazine, 0.25 mg/ml.
CD-1 mice treated with indicated doses of IP3R3 peptide were i.p. injected with LPS at LD80 dose (50 mg/kg LPS) and were monitored for 5 days. Survival rate (%) was plotted vs. peptide dose in logarithm scale. The sigmoidal dose-response curve was fitted to the data points. n=10 mice/group. Mice were anesthetized prior to retro-orbital injection of peptide with 2.5% isoflurane in room air in an anesthesia induction chamber. Anesthesia was maintained during i.v. injection using a specially designed rodent facemask with a coaxial tube (Harvard Apparatus, AH 72-3026).
Male CD1 mice were challenged by intraperitoneal (i.p.) injection of LD90 doses of LPS. The experimental and control groups received retro-orbital, intravenous (i.v.) injection of EBIN attached to the C-terminus of cell permeant antennapedia peptide (AP) or AP alone at a concentration of 1 microM/kg. Mice were injected tree times, 30 minutes prior to and 1 hr and 24 hrs after LPS administration. Mice were anesthetized prior to retro-orbital injection with a mixture of ketamine (10 mg/ml), xylazine (0.25 mg/ml), and acepromazine (0.25 mg/ml).
FIG. 19 compares the effect of pre- and post treatment with EBIN (SEQ ID NO: 3) on lethality from LPS-induced sepsis. […] Male CD1 mice were challenged by intraperitoneal (i.p.) injection of LD90 doses of LPS. The experimental and control groups received tail vein (i.v.) injection of Myr-EBIN 30 min prior (pre-treatment) or 30 min after (post-treatment) LPS or Myr-control loss-of-binding peptide at a concentration of 1 microM/kg. Pre-treatment group, mice were injected tree times, 30 minutes prior to and 1 hr and 24 hrs after LPS administration; treatment group, mice were injected two times, 30 minutes and 24 hrs after LPS administration. Mice were anesthetized prior to retro-orbital injection with a mixture of ketamine (10 mg/ml), xylazine (0.25 mg/ml), and acepromazine (0.25 mg/ml).
The pharmacological effect of IP3R3 peptide was tested in LPS-induced murine model of sepsis. Male CD1 mice were challenged by intraperitoneal injection (i.p.) of LPS (30 mg/kg body weight) and infiltration of neutrophils in lung, a measure of lung inflammation was determined. Lungs were perfused with PBS, weighed, frozen and used for measuring lung myeloperoxidase (MPO) activity, signature of activated neutrophils. […] Furthermore, it was determined whether IP3R3 peptide protects from polymicrobial sepsis induced by cecal ligation and puncture (CLP). CLP causes lethal peritonitis that is accompanied by acute lung injury (ALI). It is well-excepted and clinically relevant method in experimental rodents.
The dose-response of IP3R3 peptide was further tested in LPS-induced murine model of sepsis. Male CD1 mice were challenged by i.p. injection of LPS at LD80 dose. Mice received a retro-orbital i.v. injection of IP3R3 peptide at doses 0.01, 0.033, 0.1, 0.33, 1.0, 3.3 and 10 μM per kg of the body weight. Mice were injected with IP3R3 peptide three times, 30 minutes prior to, and 1 and 24 hrs after LPS administration. A percent of survived animals in each group was plotted as a function of IP3R3 dose. […] The ED50 (effective dose, 50%) as 80 nM/kg was calculated using a three-parameter logistic equation: y=min+([…])/1+10^LogED50-x Where min and max are minimum and maximum of response.
The effect of EBIN on mortality rate from LPS-induced sepsis was determined. Mice received i.v. retro-orbital injection of AP-EBIN or AP control peptide, 30 minutes prior to and 1 hr after LPS administration at LD90 dose. […] In this experiment, Myr-EBIN was injected in tail vein 30 min and 24 hrs after LPS challenged. […] It is concluded that administration of EBIN prior to systemic inflammation has much higher beneficial outcome.

Data set [1] concerns histamine-induced vasodilation. Briefly: Awake blood pressure measurement in mice, histamine-induced vasodilation. It is filed as in vivo. As to conditions: AP-EBIN 1 μM/kg i.v. As for the experimental part:
Awake Blood Pressure Measurement in Mice-Mice were anesthetized and surgically prepared for placement of arterial (carotid) and venous (external jugular) catheters. One hour after surgery the blood pressure was monitored directly using a pressure transducer. Subsequent intravenous (i.v.) injections of AP-EBIN peptide (1 μM/kg body weight; green) or control AP peptide (red) and histamine (10 mg/kg body weight) were performed through jugular vein catheter; the arrow indicates the time of injection.
(§1) The activity of nitric oxide synthase 3(eNOS), an endothelial-specific enzyme that produces NO, is regulated by calcium signaling, particularly, through eNOS interaction with calmodulin, and is a known cause of hyperpermeability of endothelial barrier during inflammation. Because EBIN inhibits calcium signaling it was postulated that the barrier-protective effect of EBIN, in part, is due to inhibition of eNOS. Therefore, the effect of EBIN on basal and agonist-induced production of NO was measured. NO formation was measured using porphyrinic NO electrodes coupled to a FAS1 femtostat and a personal computer with electrochemical software (Gamry Instruments). The electrode current, which is proportional to NO concentration, was measured as a function of time.

Data set [2] concerns IgE-mediated anaphylactic reaction. Briefly: Subcutaneous vascular leak (Evans Blue) following IgE-mediated anaphylactic reaction. It is filed as in vivo. As to conditions: mice, intradermal IgE-HSA, HSA challenge 24 hr later; Myr-peptide 1 μM/kg i.v. 30 min prior to HSA. As to the method:
Mice received intradermal injection of IgE-HSA in the ear (A) and back (B) and 24 hr later, iv injection of Evans Blue and HSA (1-3) or saline (4-5). Groups 1 and 4 received saline, 2—control peptide (loss-of-binding) and 3 and 5—Myr-EBIN iv injection (1 μM/kg) 30 min prior to HSA. […] C. […] Evans Blue was extracted from ear tissue and Evans Blue concentration was measured at A=620 nm and normalized to the tissue weight. *, p<0.05, n=6 mice/group.
Airway microvascular hyperpermeability, the result of elevated plasma VEGF, is one of the critical factors contributing to abnormal airway function in patients with classic asthma and its cough variant. Because acute allergic asthmatic response is mainly due to IgE-mediated hypersensitivity, we also determined whether EBIN protects from subcutaneous vascular leak following an IgE-mediated anaphylactic reaction. […] These date indicate that EBIN might be effectively used to improve the lung function and overall health of patients with chronic or acute forms of allergic asthma, and curtail the asthmatic inflammatory response.

For data set [3], the system named is HPAECs. Briefly: NO production in HPAECs (porphyrinic NO electrodes). It is filed as cell-based, Human. Particulars: first 20 min. As to the method: HPAECs were pretreated with control peptide (loss-of-activity) or Myr-EBIN and basal (A, in response to addition of L-arginin) and agonist-induced (B, thrombin and histamine) NO production was measured for the first 20 min stimulation.
as §1

The next data set concerns the target T1, EB3/IP3R3 interaction (Homo sapiens, UniProt Q9UPY8).
T1 construct: HPAECs pretreated with 1 μM AP-EBIN or control peptide (AP) were challenged with 50 nM thrombin; endogenous in cells; host or cells: HPAEC (human pulmonary aorta endothelial cells)
Briefly: EB3-IP3R3 interaction by immunoprecipitation/Western blot in HPAECs challenged with thrombin. It is filed as cell-based. As to conditions: HPAECs pretreated with 1 μM AP-EBIN; 50 nM thrombin. As to the method:
HPAECs pretreated with 1 μM AP-EBIN or control peptide (AP) were challenged with 50 nM thrombin. The interaction between EB3 and IP3R3 was analyzed at different time-points after thrombin stimulation. EB3 was immune-precipitated with specific Abs and resulted precipitates were probed for EB3 and IP3R3.
(§2) To determine the inhibitory properties of EBIN in cells, Human Pulmonary Aorta Endothelial Cell (HPAECs) monolayers pretreated with EBIN or with a control peptide at the concentration of 1 μM were challenged with thrombin. The interaction between EB3 and IP3R3 receptor was analyzed using a Western Blot analysis. […] EBIN but not a control peptide mitigated agonist-induced increase in intracellular calcium. [Ca2-F]i transient after stimulation of HPAEC monolayers with pro-inflammatory cytokines.

For data set [4], the system named is HPAECs. Briefly: Agonist-induced intracellular calcium transient in HPAEC monolayers (Fura-2 340/380). It is filed as cell-based, Human. Particulars: 1 μM Myr-peptide, 50 nM thrombin or 90 μM histamine. As for the experimental part: [Ca2+]i transient after stimulation of HPAEC monolayers with 50 nM thrombin (A) or 90 μM histamine (B). Mean value; n=20 cells. Arrow, time of stimulation.
as §2

[5] abbreviates: 50 mg/kg LPS, vs loss-of-binding peptide.

T1 sequence (Q9UPY8 whole entry): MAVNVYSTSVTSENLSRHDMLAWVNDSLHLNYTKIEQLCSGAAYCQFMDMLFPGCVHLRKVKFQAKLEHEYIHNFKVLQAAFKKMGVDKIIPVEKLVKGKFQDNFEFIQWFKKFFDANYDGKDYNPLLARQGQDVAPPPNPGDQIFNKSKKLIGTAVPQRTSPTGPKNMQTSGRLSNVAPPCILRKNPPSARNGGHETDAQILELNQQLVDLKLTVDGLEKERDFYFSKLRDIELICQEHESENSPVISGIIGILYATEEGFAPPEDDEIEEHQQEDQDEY

On to `CC(=O)O[C@H]1C(=O)[C@@]2(C)[C@H]([C@H](OC(=O)c3ccccc3)[C@]3(O)C[C@H](OC(=O)[C@H](O)[C@@H](NC(=O)c4ccccc4)c4ccccc4)C(C)=C1C3(C)C)[C@]1(OC(C)=O)CO[C@@H]1C[C@@H]2O` [taxol], for which, in the data set on lung injury, the “lung injury in mice models” value is on record as “attenuate the lung injury”. Also, the “release of Ca2+ from ER in response to thrombin” value in the data set with HMVECs was “inhibits release of Ca^2+ from ER to the same extent as IP3R3 peptide”. The “IP3-gated release of Ca2+” value in the data set with IP3R is given as “inhibits IP3-gated release of Ca2+”.

`CC[C@H](C)[C@H](NC(=O)[C@H](C)NC(=O)[C@@H](NC(=O)[C@@H]1CCCN1C(=O)[C@@H](NC(=O)[C@H](CCC(=O)O)NC(=O)[C@@H](NC(=O)[C@H](Cc1c[nH]c2ccccc12)NC(=O)[C@H](CC(C)C)NC(=O)[C@H](CCCNC(=N)N)NC(=O)[C@H](C)NC(=O)[C@H](Cc1ccccc1)NC(=O)[C@@H](N)CCCCN)[C@@H](C)O)[C@@H](C)CC)[C@@H](C)O)C(=O)N[C@H](C(=O)O)[C@@H](C)O` [IP3R3 peptide, KFARLWTEIPTAIT] (H-KFARLWTEIPTAIT-OH): the “survival / mortality, LD50 LPS challenge” value in the data set on LPS-induced sepsis (30 mg/kg LPS i.p., peptide i.v. 30 minutes prior to and 1 hr after LPS, vs AP control) was “marked improvement in survival rate; also recorded: mortality reduction”. Further, the “toxicity within the dose range” value in the data set on LPS-induced sepsis (mice, 0.01 to 10 μM per kg i.v., three injections) is “low toxicity”.

On to FTEIPTI (EB binding peptide) [EBIN], for which the “baseline (systolic) blood pressure” value in [1] was “no effect on baseline blood pressure”. Besides, the “histamine-induced blood pressure drop / vasodilation” value in [1] (histamine 10 mg/kg i.v.) was “significantly inhibited histamine-induced vasodilation; also recorded: prevented blood pressure drop in response to histamine”. The “subcutaneous vascular leak (Evans Blue) in ear and back” value in [2] is recorded as “significantly attenuates subcutaneous vascular leak; also recorded: significantly attenuated”. The “basal NO production” value in the data set on HPAECs [3] (response to L-arginin) is given as “no effect; also recorded: did not affect basal NO level”. The “agonist-induced NO production” value in the data set with HPAECs [3] (thrombin and histamine) is given as “significantly attenuated agonist-induced NO production”. Besides, the “interaction between EB3 and IP3R3, basal and after thrombin” value in the data set with EB3/IP3R3 interaction is “attenuated basal and thrombin-induced interaction between EB3 and IP3R3; also recorded: markedly reduced”. Also, in the data set with HPAECs [4], the “agonist-induced increase in intracellular calcium ([Ca2+]i transient)” value was “significantly inhibited the intracellular calcium flux”. In addition, the “survival rate, LPS LD90, pre-treatment with Myr-EBIN” value in the data set with LPS-induced sepsis (setting [5]) is listed as “reduced mortality”. Moreover, the “survival rate, LPS LD90, post-treatment with Myr-EBIN” value with LPS-induced sepsis (50 mg/kg LPS, Myr-EBIN 1 microM/kg tail vein 30 min and 24 hrs after LPS, vs loss-of-binding peptide) is recorded as “insignificant improvement in survival rate; also recorded: some but not significant improvement of the survival”. In addition, the “survival / mortality, LPS LD90, AP-EBIN” value in the data set with LPS-induced sepsis (CD1 mice, 50 mg/kg LPS i.p., AP-EBIN 1 microM/kg retro-orbital i.v. starting 30 minutes prior to LPS, 120-hr, vs AP, 50 mg/kg) was “marked improvement in survival rate; also recorded: reduced mortality”.

Consider `COC(=O)Nc1nc2ccc(C(=O)c3cccs3)cc2[nH]1` [nocodazole], for which the “IP3-gated release of Ca2+” value with IP3R is given as “inhibits IP3-gated release of Ca2+”.

For “Myr-EBIN: myristoylated EBIN (SEQ ID NO: 3) (Myristoyl-FTEIPTI)”, the “agonist-induced increase in intracellular calcium ([Ca2+]i transient)” value in the data set on HPAECs [4] is recorded as “mitigates agonist-induced increase in intracellular calcium”. In addition, the “survival rate, LPS LD90, pre-treatment with Myr-EBIN” value in the data set with LPS-induced sepsis (setting [5]) is listed as “significant increase”.

Take `COc1cc2c(c(OC)c1OC)-c1ccc(OC)c(=O)cc1[C@@H](NC(C)=O)CC2` [colchicine]: the “IP3-gated release of Ca2+” value in the data set on IP3R is listed as “inhibits IP3-gated release of Ca2+”.
